Drawing on ChEMBL document CHEMBL3046314, “Synthesis, cytotoxicity, and molecular properties prediction of novel 1,3-diarylpyrazole derivatives” (Med Chem Res, 2013), this text covers IC50 for 29 compounds.

Common to all, as to assay type: functional, cell-based
One assay has as its system MDA-MB-231. The assay is described as follows: Cytotoxicity against Homo sapiens (human) MDA-MB-231 cells after 48 hr by MTT assay. The following applies: MDA-MB-231, 48 h. In general terms: Formazan colour is commonly taken as a measure of viable cells.
The subject of another assay is HeLa. The assay is described as follows: Cytotoxicity against Homo sapiens (human) HeLa cells after 48 hr by MTT assay.
Another assay deals with HL-60. The assay is described as follows: Cytotoxicity against Homo sapiens (human) HL60 cells after 48 hr by MTT assay.
The test system of the next assay is MCF7. The experiment in a line: Cytotoxicity against Homo sapiens (human) MCF7 cells after 48 hr by MTT assay.
A further assay deals with Raji. The experiment in a line: Cytotoxicity against Homo sapiens (human) Raji cells after 48 hr by MTT assay.
The mark [1] stands for this setting: Homo sapiens, HL-60, 48 h, read-out: IC50.
The mark [2] stands for this setting: Homo sapiens, MCF7, 48 h, read-out: IC50.
The mark [3] stands for this setting: Homo sapiens, Raji, 48 h, read-out: IC50.

For orientation: IC50 means the concentration that inhibits the measured activity by half. Take `O=C(c1cn(-c2ccccc2)nc1-c1ccncc1)N1CCN(c2ccncc2)CC1`: the IC50 with MDA-MB-231, with HeLa, with HL-60 (setting [1]), with MCF7 (setting [2]) and in the assay on Raji (setting [3]) was greater than 100 µM throughout.

Consider `O=C(c1cn(-c2ccccc2)nc1-c1cccnc1)N1CCC(Cc2ccccc2)CC1`, for which the 50% inhibitory concentration (IC50) in the assay on MDA-MB-231 was greater than 100 µM; with HeLa, 25.3 µM; with HL-60 (setting [1]), 16.1 µM; in the assay with MCF7 (setting [2]), 32.2 µM; in the assay on Raji (setting [3]) it was 8.12 µM.

In the case of `O=C(O)c1cn(-c2ccccc2)nc1-c1cccnc1`, the IC50 with MDA-MB-231, in the assay with HeLa, with HL-60 (setting [1]), in the assay on MCF7 (setting [2]) and with Raji (setting [3]) was greater than 100 µM in each case.

On to `O=C(c1cn(-c2ccccc2)nc1-c1cccnc1)N1CCN(c2ccccc2)CC1`, for which the IC50 is greater than 100 µM in the assay with MDA-MB-231; greater than 100 µM in the assay with HeLa; 24.5 µM with HL-60 (setting [1]); greater than 100 µM with MCF7 (setting [2]); 32.8 µM in the assay with Raji (setting [3]).

In the case of `CC(C)(C)c1ccc(OC(=O)c2cn(-c3ccccc3)nc2-c2ccncc2)cc1`, the IC50 was 34.5 µM in the assay on MDA-MB-231; 35.4 µM in the assay on HeLa; 18.7 µM in the assay with HL-60 (setting [1]); 32.2 µM with MCF7 (setting [2]); 33.3 µM with Raji (setting [3]).

For the compound `CN1CCN(C(=O)c2cn(-c3ccccc3)nc2-c2cccnc2)CC1`, the half-maximal inhibitory concentration (IC50) in the assay on MDA-MB-231 is greater than 100 µM; in the assay with HeLa it was greater than 100 µM; with HL-60 (setting [1]), greater than 100 µM; in the assay on MCF7 (setting [2]), greater than 100 µM; with Raji (setting [3]), 75.6 µM.

In the case of `O=C(c1cn(-c2ccccc2)nc1-c1ccncc1)N1CCOCC1`, the IC50 in the assay with MDA-MB-231, in the assay on HeLa, with HL-60 (setting [1]), with MCF7 (setting [2]) and in the assay on Raji (setting [3]) was greater than 100 µM each time.

In the case of `COc1ccc(OC(=O)c2cn(-c3ccccc3)nc2-c2ccncc2)cc1`, the half-maximal inhibitory concentration (IC50) in the assay with MDA-MB-231, in the assay with HeLa, in the assay on HL-60 (setting [1]), in the assay with MCF7 (setting [2]) and in the assay on Raji (setting [3]) was greater than 100 µM each time.

As to `O=C(c1cn(-c2ccccc2)nc1-c1cccnc1)N1CCOCC1`, the IC50 in the assay with MDA-MB-231, in the assay with HeLa, in the assay with HL-60 (setting [1]), with MCF7 (setting [2]) and in the assay on Raji (setting [3]) was greater than 100 µM throughout.

`Cc1ccc(C(C)C)c(OC(=O)c2cn(-c3ccccc3)nc2-c2ccncc2)c1`: the 50% inhibitory concentration (IC50) in the assay on MDA-MB-231 is greater than 100 µM; in the assay on HeLa it was greater than 100 µM; in the assay with HL-60 (setting [1]) it was 17.8 µM; with MCF7 (setting [2]), greater than 100 µM; with Raji (setting [3]), 10.6 µM.

In the case of `CCc1ccc(OC(=O)c2cn(-c3ccccc3)nc2-c2ccncc2)cc1`, the half-inhibitory concentration (IC50) in the assay with MDA-MB-231 was greater than 100 µM; with HeLa it was greater than 100 µM; in the assay on HL-60 (hl-60), “ND(Insoluble)”; in the assay on MCF7 (mcf7), “ND(Insoluble)”; with Raji (raji), “ND(Insoluble)”.

For the compound `O=C(c1cn(-c2ccccc2)nc1-c1ccncc1)N1CCC(Cc2ccccc2)CC1`, the IC50 with MDA-MB-231 is greater than 100 µM; with HeLa it was 32.8 µM; in the assay with HL-60 (setting [1]), 16.4 µM; in the assay with MCF7 (setting [2]), 56.4 µM; in the assay with Raji (setting [3]), 21.3 µM.

As for `O=C(Oc1ccc(-c2ccccc2)cc1)c1cn(-c2ccccc2)nc1-c1cccnc1`, the IC50 with MDA-MB-231 is greater than 100 µM; in the assay on HeLa, greater than 100 µM; with HL-60 (hl-60) it was “ND(Insoluble)”; in the assay on MCF7 (mcf7), “ND(Insoluble)”; in the assay on Raji (raji), “ND(Insoluble)”.

`O=C(NCc1ccccc1)c1cn(-c2ccccc2)nc1-c1ccncc1`: the IC50 in the assay with MDA-MB-231, in the assay on HeLa, in the assay with HL-60 (setting [1]), in the assay with MCF7 (setting [2]) and in the assay with Raji (setting [3]) was greater than 100 µM each time.

As for `O=C(NCc1ccccc1)c1cn(-c2ccccc2)nc1-c1cccnc1`, the concentration for half-maximal inhibition (IC50) with MDA-MB-231 was greater than 100 µM; with HeLa, greater than 100 µM; in the assay with HL-60 (hl-60) it was “ND(Insoluble)”; in the assay with MCF7 (mcf7), “ND(Insoluble)”; in the assay on Raji (raji) it was “ND(Insoluble)”.

Regarding `O=C(O)c1cn(-c2ccccc2)nc1-c1ccncc1`, the concentration for half-maximal inhibition (IC50) in the assay on MDA-MB-231, in the assay on HeLa, with HL-60 (setting [1]), in the assay with MCF7 (setting [2]) and in the assay with Raji (setting [3]) was greater than 100 µM throughout.

On to `O=C(c1cn(-c2ccccc2)nc1-c1ccncc1)N1CCN(c2ccc(C(F)(F)F)cc2)CC1`, for which the IC50 in the assay with MDA-MB-231 was greater than 100 µM; with HeLa it was greater than 100 µM; with HL-60 (setting [1]) it was greater than 100 µM; in the assay on MCF7 (setting [2]) it was greater than 100 µM; with Raji (setting [3]) it was 9.63 µM.

Regarding `COc1ccc(OC(=O)c2cn(-c3ccccc3)nc2-c2cccnc2)cc1`, the IC50 with MDA-MB-231, with HeLa, with HL-60 (setting [1]), with MCF7 (setting [2]) and with Raji (setting [3]) was greater than 100 µM in each case.

Turning to `CN1CCN(C(=O)c2cn(-c3ccccc3)nc2-c2ccncc2)CC1`, the IC50 with MDA-MB-231, with HeLa, with HL-60 (setting [1]), with MCF7 (setting [2]) and in the assay with Raji (setting [3]) was greater than 100 µM in each case.

`O=C(c1cn(-c2ccccc2)nc1-c1cccnc1)N1CCN(c2ccncc2)CC1`: the IC50 with MDA-MB-231, in the assay with HeLa, with HL-60 (setting [1]), in the assay with MCF7 (setting [2]) and in the assay with Raji (setting [3]) was greater than 100 µM each time.

On to `CC(C)c1cccc(OC(=O)c2cn(-c3ccccc3)nc2-c2ccncc2)c1`, for which the IC50 was greater than 100 µM in the assay with MDA-MB-231; greater than 100 µM in the assay on HeLa; “ND(Insoluble)” with HL-60 (hl-60); “ND(Insoluble)” in the assay on MCF7 (mcf7); “ND(Insoluble)” in the assay with Raji (raji).

As for `CC(C)c1cccc(OC(=O)c2cn(-c3ccccc3)nc2-c2cccnc2)c1`, the concentration for half-maximal inhibition (IC50) in the assay on MDA-MB-231 was greater than 100 µM; in the assay on HeLa, greater than 100 µM; in the assay with HL-60 (setting [1]), 23.7 µM; in the assay with MCF7 (setting [2]), 75.5 µM; in the assay with Raji (setting [3]), 11.6 µM.

Take `Cc1ccc(C(C)C)c(OC(=O)c2cn(-c3ccccc3)nc2-c2cccnc2)c1`: the IC50 was greater than 100 µM in the assay on MDA-MB-231; greater than 100 µM in the assay on HeLa; 22.7 µM in the assay on HL-60 (setting [1]); 84.2 µM with MCF7 (setting [2]); 20.6 µM with Raji (setting [3]).

Regarding `O=C(Oc1ccc2ccccc2c1)c1cn(-c2ccccc2)nc1-c1cccnc1`, the IC50 is greater than 100 µM in the assay with MDA-MB-231; greater than 100 µM in the assay with HeLa; “ND(Insoluble)” with HL-60 (hl-60); “ND(Insoluble)” in the assay with MCF7 (mcf7); “ND(Insoluble)” in the assay on Raji (raji).

`O=C(Oc1ccc2ccccc2c1)c1cn(-c2ccccc2)nc1-c1ccncc1`: the IC50 in the assay with MDA-MB-231 was greater than 100 µM; in the assay with HeLa, greater than 100 µM; in the assay with HL-60 (setting [1]), greater than 100 µM; in the assay on MCF7 (setting [2]), 44.5 µM; with Raji (setting [3]), 12.1 µM.

Consider `O=C(c1cn(-c2ccccc2)nc1-c1cccnc1)N1CCN(c2ccc(C(F)(F)F)cc2)CC1`, for which the IC50 was greater than 100 µM with MDA-MB-231; 28.6 µM with HeLa; 16.9 µM in the assay on HL-60 (setting [1]); 75.3 µM in the assay on MCF7 (setting [2]); 15.1 µM in the assay on Raji (setting [3]).

For the compound `CC(C)(C)c1ccc(OC(=O)c2cn(-c3ccccc3)nc2-c2cccnc2)cc1`, the IC50 in the assay on MDA-MB-231 was greater than 100 µM; with HeLa, greater than 100 µM; with HL-60 (setting [1]), greater than 100 µM; with MCF7 (setting [2]), greater than 100 µM; with Raji (setting [3]), 42.3 µM.

As for `O=C(c1cn(-c2ccccc2)nc1-c1ccncc1)N1CCN(c2ccccc2)CC1`, the IC50 with MDA-MB-231, in the assay on HeLa, in the assay with HL-60 (setting [1]), in the assay on MCF7 (setting [2]) and with Raji (setting [3]) was greater than 100 µM in each case.

On to `O=C(Oc1ccc(-c2ccccc2)cc1)c1cn(-c2ccccc2)nc1-c1ccncc1`, for which the IC50 was greater than 100 µM in the assay on MDA-MB-231; greater than 100 µM in the assay on HeLa; “ND(Insoluble)” in the assay on HL-60 (hl-60); “ND(Insoluble)” in the assay with MCF7 (mcf7); “ND(Insoluble)” with Raji (raji).
